The record followed here is patent US20100234381A1, “BIOMARKERS AND METHODS FOR DETERMINING SENSITIVITY TO VASCULAR ENDOTHELIAL GROWTH FACTOR RECEPTOR-2 MODULATORS” (Bristol-Myers Squibb Company, priority 2007, published 2010).

Entries after “also recorded” stand apart in the source; their conditions may differ.

Assay [1] concerns FGF2 growth factor gene expression. In words: FGF2 gene expression, AFFYMETRIX human arrays.
Assay [2] relates to VEGF-stimulated cancer cell lines. In words: VEGF-stimulated tumor cell proliferation, panel of cancer cell lines. Particulars: in vitro. The assay is classed as cell-based.
For a further assay, the system named is GEO colon cancer cells. Briefly: VEGF-induced proliferation of GEO colon cancer cells (modified MTS assay). In kind it is cell-based. The settings on record: VEGF 2.5 ng/ml; 72 hours. How it is done: Cell Culture-GEO colon cancer cell line was routinely maintained in RPMI 1640 (Cellgro, Virginia) with 1% fetal bovine serum (Cellgro, Virginia) at 37° C. in 5% carbon dioxide/95% air in the presence of 100 units/ml penicillin, 100 μg/ml streptomycin (Cellgro, Virginia). Cell proliferation was determined by a modified MTS assay with […] 96® Aqueous One Solution Reagent (Promega, Madison, Wis.). […] After 180 minutes incubation, the optical densities (OD) of these samples were directly measured using SPECTRAMAX® plus (Molecular Device, California) and reference wavelength of 490 nm. […] Cell proliferation was determined by a modified MTS assay with […] […] After 180 minutes incubation, the optical densities (OD) of these samples were directly measured using SPECTRAMAX® plus (Molecular Device, California) and reference wavelength of 490 nm. […] […]

For a further assay, the system named is pERK and pAKT. Briefly: Western blot of downstream pERK and pAKT after FGF2 stimulation. In kind it is cell-based. Particulars: 2 μm brivanib, 40 ng/ml FGF2, HCC cell line.
The test system of a further assay is GEO colon cancer model. Briefly: Tumor growth inhibition in GEO colon cancer model. The settings on record: compared to bevacizumab. The assay is classed as in vivo.
The subject of another assay is collagen IV (CIV). In words: Plasma collagen IV (CIV) ELISA in patients. In kind it is in vivo, human. Particulars: for reduction in median CIV levels: regardless of FGF-2 status. As for the experimental part:
Plasma collagen IV (CIV) was measured using an enzyme-linked immunosorbent assay (ELISA) kit obtained from Biotrin International, Ltd. (Dublin, Ireland). […] Per the manufacturer's kit insert and instructions, the kit standards, QCs and EDTA plasma patient samples were diluted with conjugate (anti-collagen IV mouse Fab′ conjugated to horseradish peroxidase, containing 30 mg/l Proclin 300 as a preservative). Diluted samples were incubated for 30 minutes in wells coated with a second anti-collagen IV antibody, and then washed 3 times with kit wash buffer (phosphate buffer with Tween 20 and proclin 300 as a preservative. Ready to use TMB substrate was added and incubated for 30 minutes. The reaction was stopped by the addition of 1M H2SO4. The absorbance at 450 nm using 630 nm as a reference was measured using a SPECTRAMAX® plate reader (Molecular Devices, Sunnyvale, Calif.). Softmax Pro 4.8 software was used to generate a 4-parameter logistic (4-PL) curve fit using the CIV kit standards.

The subject of assay [3] is A2780 ovarian cancer cells. Briefly: FGF2-induced proliferation of A2780 ovarian cancer cells (modified MTS assay). In kind it is cell-based. As for the experimental part: Cell proliferation was determined by a modified MTS assay with […] 96® Aqueous One Solution Reagent (Promega, Madison, Wis.). A2780 ovarian cancer cells, MIAPAC-2 pancreatic cancer cells, or GEO colon cancer cells were seeded on 96-well flat-bottomed tissue culture plates (Becton Dickinson, San Jose, Calif.) at a concentration of 3×10^3 cells/well in RPMI 1640 with 1% fetal bovine serum at 37° C. in 5% carbon dioxide/95% air in the presence of 100 units/ml penicillin, 100 μg/ml streptomycin and allowed to adhere to the plate overnight. Then the cells were incubated in the presence of each concentration of 0 (control), 0.3, 0.6, 1.25, 2.5, 5, 10 ng/ml of FGF2 or VEGF for another 72 hours at 37° C. in a humidified atmosphere of 5% CO2 in air. After treatment, 20 μl of […] 96® Aqueous One Solution Reagent was dropped into each well of plates. After 180 minutes incubation, the optical densities (OD) of these samples were directly measured using SPECTRAMAX® plus (Molecular Device, California) and reference wavelength of 490 nm. The OD of control samples was regarded as 100. Each condition was performed with 4 wells and experiment was repeated twice.

The next assay relates to VEGF gene expression. Briefly: VEGF gene expression, AFFYMETRIX human arrays.
The test system of the next assay is sVEGFR2. Briefly: Plasma sVEGFR2 change from baseline in patients. The assay is classed as in vivo, human.

Method for pERK and pAKT: Anti-FGFR1, Anti-VEGFR2, Anti-ERK, Anti-AKT, and Anti-alpha tubulin antibodies were also utilized. Blots were incubated with indicated primary antibodies and 1:7500 horseradish peroxidase-conjugated secondary antibodies. All primary antibodies were used at a final concentration of 1 μg/ml. The blots were then visualized with a chemiluminescent detection system.

In general, IC50 refers to the concentration that gives 50% inhibition. Turning to “[(1R),2S]-2-Aminopropionic acid 2-[4-(4-fluoro-2-methyl-1H-indol-5-yloxy)-5-methylpyrrolo[2,1-f][1,2,4]triazin-6-yloxy]-1-methylethyl ester [brivanib]”, in assay [1], the “modulation of FGF2 growth factor gene expression levels” value is listed as “modulated FGF2 growth factor gene expression levels”. Further, the “effect on tumor cell proliferation in the presence of VEGF” value in assay [2] is “no affect on tumor cell proliferation”. Besides, the “inhibition of VEGF-induced cellular proliferation in GEO cells” value in the assay with GEO colon cancer cells was “did not potently inhibit”. In addition, in the assay on pERK and pAKT, the “downstream pathway pERK and pAKT” value is “affecting downstream pathway genes such as pERK and pAKT”. Further, the “ability to inhibit tumor growth” value in the assay on GEO colon cancer model is given as “increased affect on the ability to inhibit tumor growth when compared to bevacizumab”. Besides, the “reduction in median CIV levels” value in the assay on collagen IV (CIV) (320 mg, after 8 days) is listed as 2.6%; in the assay on collagen IV (CIV) (320 mg, after 26 days), 2.3%; with collagen IV (CIV) (800 mg, after 8 days), 24%; in the assay with collagen IV (CIV) (800 mg, after 26 days), 31%. The “COL IV change from baseline (%) (Day 26) (n = 42)” value is on record as −30% in the assay with collagen IV (CIV) (FGF2+ patients (n = 24)) and −16% with collagen IV (CIV) (FGF2− patients (n = 19)). In addition, the “median decrease of CIV levels from baseline” value with collagen IV (CIV) (patients with FGF2(−) tumors, after 8 days) came out at 4.9%; in the assay with collagen IV (CIV) (patients with FGF-2(+) tumors, after 8 days), 16.1%. Further, the “median reduction from baseline in CIV levels” value in the assay with collagen IV (CIV) (patients with FGF-2(+) tumors, after 26 days) was found to be 30.7%; in the assay on collagen IV (CIV) (patients with FGF-2(−) tumors, after 26 days), 4.3%. Further, the “effect on FGF2-induced cellular proliferation” value in assay [3] (A2780 ovarian cancer cells) is “potently inhibited; also recorded: inhibits ovarian cancer and pancreatic cancer cell line growth directly”. The “inhibition of FGF2-induced cell growth” value in assay [3] (ovarian cancer cell line A2870) is over 50%. The IC50 in assay [3] (ovarian cancer cell line A2870, read-out: IC50, FGF2-induced cell growth) is under 1 µM. In the assay on VEGF gene expression, the “modulation of VEGF gene expression levels” value is on record as “modulated VEGF gene expression levels”. In addition, the “sVEGFR2 change from baseline (%) (Day 26) (n = 39)” value in the assay with sVEGFR2 (FGF2+ patients (n = 24)) is −23%; with sVEGFR2 (FGF2− patients (n = 19)), −15%.
